Measurements as given in ChEMBL document CHEMBL1201862, “PubChem BioAssay data set” (2004).
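Step 1: Grow cells in 96-well plates. Step 2: Expose to compound for 48 hours at 5 concentrations. Step 3: Interpolate endpoints linearly; if unreached, use highest concentration. GI50 = concentration required for 50% inhibition of growth.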 The source made the active and inactive calls. No stated cut-off is given here; in the data, active = GI50 up to about 1.1 µM and inactive = higher.

Legend:
Experiment in all cases: NCI-60 cell line screen, 48 h
[1] = system: SNB-75
[2] = system: Malme-3M
[3] = system: IGROV-1
[4] = system: BT-549
[5] = system: A549
[6] = system: RPMI-8226
[7] = system: MDA-MB-231
[8] = system: SF-295
[9] = system: RXF 393
[10] = system: SK-MEL-2
[11] = system: COLO 205
[12] = system: A498
[13] = system: PC-3
[14] = system: SK-MEL-5
[15] = system: MDA-N
[16] = system: T47D
[17] = system: NCI-H226
[18] = system: SK-MEL-28
[19] = system: LOX IMVI

Measured: GI50

CCN(CC)CCNc1nc2ccc([N+](=O)[O-])cc2[n+]([O-])n1
inactive: [1] 29.3 µM | [2] 1.75 µM | [3] 15.7 µM | [4] 73.8 µM | [5] 21.1 µM | [6] 14.7 µM | [7] 15.5 µM | [8] 32.1 µM | [9] 46.7 µM | [10] 15.2 µM | [11] 2.84 µM | [12] 28.4 µM | [13] 20.1 µM | [14] 10.5 µM | [15] 14.9 µM | [16] 20.1 µM | [17] 83 µM | [18] 71.6 µM

O=C(Nc1ccc(Cl)cc1Cl)C1C(=O)OC2(CCCCC2)OC1=O
inactive: [1] 10.4 µM | [3] 5.98 µM | [4] 10.7 µM | [5] 4.71 µM | [6] 4.16 µM | [7] 14.1 µM | [8] 2.92 µM | [9] 5.36 µM | [10] 2.93 µM | [11] 10.4 µM | [12] 12.8 µM | [13] 3.45 µM | [19] 6.22 µM | [14] 2.17 µM | [15] 15.7 µM | [16] 12.5 µM | [17] 12.6 µM | [18] 5.77 µM

O=C(NCCO)Nc1c(C(F)(F)F)cc(-c2ccccc2)[nH]c1=O
inactive: [3] > 100 µM | [4] > 100 µM | [5] > 100 µM | [6] > 100 µM | [7] > 100 µM | [8] > 100 µM | [9] > 100 µM | [10] > 100 µM | [11] > 100 µM | [12] > 100 µM | [13] > 100 µM | [19] > 100 µM | [14] > 100 µM | [15] > 100 µM | [16] > 100 µM | [17] > 100 µM | [18] > 100 µM

COc1cc(C2OC[C@@H]3C(=O)OC[C@H]23)cc(O)c1OC (stereo not given in full)
inactive: [1] > 100 µM | [3] > 100 µM | [4] > 100 µM | [5] > 100 µM | [6] > 100 µM | [7] > 100 µM | [8] > 100 µM | [9] > 100 µM | [10] > 100 µM | [11] > 100 µM | [12] > 100 µM | [13] > 100 µM | [19] > 100 µM | [14] > 100 µM | [15] > 100 µM | [16] > 100 µM | [17] > 100 µM

Nc1[nH]c(=O)[nH]c(=O)c1Cc1cccc(Cl)c1
inactive: [1] 58.7 µM | [2] > 100 µM | [3] 56.9 µM | [4] 75.2 µM | [5] > 100 µM | [6] 79.6 µM | [7] > 100 µM | [8] > 100 µM | [9] 87.3 µM | [10] 71.9 µM | [11] > 100 µM | [12] > 100 µM | [13] 52.7 µM | [19] 54.7 µM | [15] 41 µM | [16] 39 µM | [17] > 100 µM | [18] > 100 µM

O=c1c2cc(-c3ccccc3)cnc2sn1-c1ccc(Br)cc1
inactive: [1] > 100 µM | [2] 51.8 µM | [3] 58.1 µM | [4] > 100 µM | [5] > 100 µM | [6] > 100 µM | [7] > 100 µM | [8] > 100 µM | [9] > 100 µM | [10] > 100 µM | [11] > 100 µM | [12] > 100 µM | [13] > 100 µM | [15] > 100 µM | [16] > 100 µM | [17] > 100 µM | [18] > 100 µM

CC1(C)C2CCC3=C(CCC4(C)C5C[C@](C)(C(=O)O)CC[C@]5(C)CC[C@]34C)[C@@]2(C)CC[C@@H]1O (stereo not given in full)
inactive: [1] 19 µM | [2] 17.1 µM | [3] 24.2 µM | [4] 20.1 µM | [5] 13.1 µM | [6] 20.9 µM | [7] 17.9 µM | [9] 21.6 µM | [11] 38.3 µM | [12] 26.5 µM | [13] 14.8 µM | [19] 14.8 µM | [14] 34.3 µM | [15] 18.8 µM | [16] 18 µM | [17] 29 µM | [18] 17.5 µM

COCC1OCCN1C (stereo not given)
inactive: [1] > 100 µM | [2] > 100 µM | [3] > 100 µM | [4] > 100 µM | [5] > 100 µM | [6] > 100 µM | [7] > 100 µM | [8] > 100 µM | [9] > 100 µM | [10] > 100 µM | [11] > 100 µM | [12] > 100 µM | [13] > 100 µM | [19] > 100 µM | [14] > 100 µM | [15] > 100 µM | [16] > 100 µM | [17] > 100 µM
